# In paper PMC11982498 (Redox Biology, 2025):
# Columns and labels:
# [1] = system: Aβ1-42 aggregation in SH-SY5Y cells; test: Fluorescence imaging of intracellular Aβ1-42 accumulation (ThT); format: cell-based; conditions: 25 μM Aβ1-42; 25 μM B14, 48 h
# Method: SH-SY5Y cells were seeded in a 96-well plate (6000 cells/well) in 100 μL medium. After the cells adhered to the wall, SH-SY5Y cells were incubated with serum-free medium containing 25 μM Aβ1-42 for 6 h to allow for the uptake of Aβ1-42 into the cells. Then solutions of B14 at different concentrations were added to the cells, with the mixtures incubated for 48 h. After being washed for three times with pre-cooled PBS, the cells were fixed with freshly prepared 4 % paraformaldehyde (Servicebio, Guangzhou, China) for 10 min at room temperature. After being washed for three times with pre-cooled PBS, the cells were incubated with ThT solution for 20 min at 25 °C in the dark. After washing for three times with pre-cooled PBS, the cells were stained with 10 μg/mL Hoechst 33342 solution (Aladdin, Shanghai, China) for 20 min at 25 °C in the dark. After washing for three times with pre-cooled PBS, the stained cells were observed and photographed with a FV3000 (Olympus, Japan) fluorescence microscope.
# APP/PS1 transgenic mice [2] = test: Open field test (OFT); format: in vivo; conditions: B14 10, 20, 40 mg/kg i.p. every other day
# From the text: (§1) Five months old male APP/PS1 mice, weighing 25–33 g, were purchased from Guangdong Medical Laboratory Animal Center and housed in the Laboratory Animal Center of Sun Yat-sen University (Guangzhou, China) for experimentation. All procedures were approved by the Animal Care and Use Committee of Sun Yat-sen University and complied with legal requirements and national guidelines for the care and maintenance of laboratory animals (Approval No. SYSU-IACUC-2024-002032). The mice were housed in a specific pathogen-free environment with a controlled temperature of 22 ± 1 °C and a 12-h dark/light cycle. The mice were fed with a standard diet, and 30 mice were randomly divided into 6 groups (N = 5). Compound B14 was dissolved in saline and administered at doses of 10, 20, or 40 mg/kg. APP/PS1 male mice were grown until 6 months of age, and then injected intraperitoneally with compound B14 every other day for 60 days. Behavioral experiments were then conducted, and tissue specimens were collected for biochemical analysis.
# (§2) The spatial memory and learning abilities of the mice were assessed using Morris water maze (MWM), novel object recognition (NOR) and nesting experiments (NBT). The anxiety and depressive behaviors were evaluated through the open field test (OFT) and elevated plus maze (EPM). Detailed experimental procedures are provided in the supplementary information. […]
# [3] = system: BCL-2 gene transcription in SH-SY5Y cells; test: Real-time RT-PCR in 25 μM Aβ1-42 cell model, BCL-2; format: cell-based, human
# Method: (§3) SH-SY5Y cells were treated with or without B14, and total RNA was subsequently isolated and purified. Reverse transcription was performed using a cDNA synthesis kit. The relative transcription levels of the genes were evaluated through quantitative real-time PCR using the SYBR Green-based method, as described in the Supplementary Date. Details regarding the primer sequences and the raw data can be found in Table S7 and Table S8.
# (§4) ^a -∆∆Ct = -[(Ct value of genes in treated sample - Ct value of genes in control) - (Ct value of β-actin in treated sample - Ct value of β-actin in control)]. ^b F: The relative expression fold.
# Experiment 2: The Ct values of BCL-2 and Bax in 25 μM Aβ1-42 model with different concentration of B14.
# (§5) Total RNA was extracted from cells and mice liver tissue using RNAiso Plus (Takara, 9109, Japan). Following sample homogenization, chloroform was added, and the solution was allowed to have phase separation into an upper aqueous layer (containing RNA), an interphase, and a lower organic layer (containing DNA and proteins). RNA was precipitated from the aqueous phase using isopropanol, while DNA was precipitated from the aqueous-organic interphase using ethanol. Complementary DNA (cDNA) was synthesized using the One-Step RT-PCR Kit (Takara, Cat#639503, Japan).
# (§6) Quantitative real-time polymerase chain reaction (qRT-PCR) was performed using the 2× RealStar SYBR Mixture (GenStar, Cat# A301-10, Guangzhou, China) on a LightCycler 480 II real-time PCR system (Roche, USA). Data were analyzed using the 2^−ΔΔCt method. Actin served as the internal control, and relative mRNA levels were normalized accordingly.
# [4] = target: BCL-2 G-quadruplex (BCL-2 G4); test: MST binding to BCL-2 G-quadruplex; conditions: Tris-HCl buffer pH 7.4
# Method: After incubation of DNA with compound for 60 min, the sample was loaded in MST-grade glass capillaries. The intensity of the LED power was set at 20 %, and the MST laser was set at 40 %. The analyses were performed using a Monolith NT.115, and the fitting curve was obtained by using NT Analysis 1.5.41 via Hill fitting. The KD value represents the numeric equivalent of the concentration of B14 when the response is half of the plateau response (Rmax) of the fitting curve.
# APP/PS1 transgenic mice [5] = test: Elevated plus maze (EPM); format: in vivo; conditions: B14 10, 20, 40 mg/kg i.p. every other day
# From the text: as §1, §2
# [6] = system: C-MYC gene transcription in SH-SY5Y cells; test: Real-time RT-PCR in SH-SY5Y cells, C-MYC; format: cell-based, human
# Method: as §3, §4
# Experiment 1: SH-SY5Y cells were treated with different concentration of B14. The Ct values of BAX, VEGF, CMYC and BCL-2 were obtained.
# as §5, §6
# bEnd.3 = test: MTT cytotoxicity assay, bEnd.3; format: cell-based; conditions: BEND3; incubation for 48 h
compound,measurement,setting,value
O=C(CCN1CCOCC1)Nc1ccc2c(c1)c(=O)c1cc(NC(=O)CCN3CCOCC3)ccc1n2-c1ccc2occc2c1 [Compound B14],ThT fluorescence of SH-SY5Y cells (intracellular Aβ1-42 aggregation),[1],almost completely disappeared
same,range and duration of activity (OFT),APP/PS1 transgenic mice [2],significant improvement in the range and duration of activity
same,"-∆∆Ct, BCL-2",[3]; 25 μM Aβ1-42 + 6.25 μM B14,-0.05
same,"F = 2^-∆∆Ct (relative expression fold), BCL-2",[3]; 25 μM Aβ1-42 + 6.25 μM B14,1.04
same,"-∆∆Ct, BCL-2",[3]; 25 μM Aβ1-42 + 12.5 μM B14,-0.48
same,"F = 2^-∆∆Ct (relative expression fold), BCL-2",[3]; 25 μM Aβ1-42 + 12.5 μM B14,1.40
same,"-∆∆Ct, BCL-2",[3]; 25 μM Aβ1-42 + 25 μM B14,-0.82
same,"F = 2^-∆∆Ct (relative expression fold), BCL-2",[3]; 25 μM Aβ1-42 + 25 μM B14,1.76
same,Kd,[4],59.8 µM
same,number of entries into the open arm and retention time (EPM),APP/PS1 transgenic mice [5],significantly increased
same,"-∆∆Ct, C-MYC",[6]; 6.25 μM B14,-0.01
same,"F = 2^-∆∆Ct (relative expression fold), C-MYC",[6]; 6.25 μM B14,1.00
same,"-∆∆Ct, C-MYC",[6]; 12.5 μM B14,-0.02
same,"F = 2^-∆∆Ct (relative expression fold), C-MYC",[6]; 12.5 μM B14,1.01
same,"-∆∆Ct, C-MYC",[6]; 25 μM B14,-0.03
same,"F = 2^-∆∆Ct (relative expression fold), C-MYC",[6]; 25 μM B14,1.02
same,IC50,bEnd.3,> 100 µM
